Reference: ChEMBL document CHEMBL3414527, “Engineering potent and selective analogues of GpTx-1, a tarantula venom peptide antagonist of the Na(V)1.7 sodium channel” (J Med Chem, 2015)
Bridge positions count the residues as written; N and C are the ends. Peptide text beside a SMILES is read from it.

How the values were obtained:
[1] = biological target: Sodium channel protein type 9 subunit alpha (Homo sapiens, UniProt Q15858); experiment: Inhibition of human NaV1.7 at -140 mV holding potential by whole-cell patch clamp assay
Chain of Sodium channel protein type 9 subunit alpha (Q15858 whole entry): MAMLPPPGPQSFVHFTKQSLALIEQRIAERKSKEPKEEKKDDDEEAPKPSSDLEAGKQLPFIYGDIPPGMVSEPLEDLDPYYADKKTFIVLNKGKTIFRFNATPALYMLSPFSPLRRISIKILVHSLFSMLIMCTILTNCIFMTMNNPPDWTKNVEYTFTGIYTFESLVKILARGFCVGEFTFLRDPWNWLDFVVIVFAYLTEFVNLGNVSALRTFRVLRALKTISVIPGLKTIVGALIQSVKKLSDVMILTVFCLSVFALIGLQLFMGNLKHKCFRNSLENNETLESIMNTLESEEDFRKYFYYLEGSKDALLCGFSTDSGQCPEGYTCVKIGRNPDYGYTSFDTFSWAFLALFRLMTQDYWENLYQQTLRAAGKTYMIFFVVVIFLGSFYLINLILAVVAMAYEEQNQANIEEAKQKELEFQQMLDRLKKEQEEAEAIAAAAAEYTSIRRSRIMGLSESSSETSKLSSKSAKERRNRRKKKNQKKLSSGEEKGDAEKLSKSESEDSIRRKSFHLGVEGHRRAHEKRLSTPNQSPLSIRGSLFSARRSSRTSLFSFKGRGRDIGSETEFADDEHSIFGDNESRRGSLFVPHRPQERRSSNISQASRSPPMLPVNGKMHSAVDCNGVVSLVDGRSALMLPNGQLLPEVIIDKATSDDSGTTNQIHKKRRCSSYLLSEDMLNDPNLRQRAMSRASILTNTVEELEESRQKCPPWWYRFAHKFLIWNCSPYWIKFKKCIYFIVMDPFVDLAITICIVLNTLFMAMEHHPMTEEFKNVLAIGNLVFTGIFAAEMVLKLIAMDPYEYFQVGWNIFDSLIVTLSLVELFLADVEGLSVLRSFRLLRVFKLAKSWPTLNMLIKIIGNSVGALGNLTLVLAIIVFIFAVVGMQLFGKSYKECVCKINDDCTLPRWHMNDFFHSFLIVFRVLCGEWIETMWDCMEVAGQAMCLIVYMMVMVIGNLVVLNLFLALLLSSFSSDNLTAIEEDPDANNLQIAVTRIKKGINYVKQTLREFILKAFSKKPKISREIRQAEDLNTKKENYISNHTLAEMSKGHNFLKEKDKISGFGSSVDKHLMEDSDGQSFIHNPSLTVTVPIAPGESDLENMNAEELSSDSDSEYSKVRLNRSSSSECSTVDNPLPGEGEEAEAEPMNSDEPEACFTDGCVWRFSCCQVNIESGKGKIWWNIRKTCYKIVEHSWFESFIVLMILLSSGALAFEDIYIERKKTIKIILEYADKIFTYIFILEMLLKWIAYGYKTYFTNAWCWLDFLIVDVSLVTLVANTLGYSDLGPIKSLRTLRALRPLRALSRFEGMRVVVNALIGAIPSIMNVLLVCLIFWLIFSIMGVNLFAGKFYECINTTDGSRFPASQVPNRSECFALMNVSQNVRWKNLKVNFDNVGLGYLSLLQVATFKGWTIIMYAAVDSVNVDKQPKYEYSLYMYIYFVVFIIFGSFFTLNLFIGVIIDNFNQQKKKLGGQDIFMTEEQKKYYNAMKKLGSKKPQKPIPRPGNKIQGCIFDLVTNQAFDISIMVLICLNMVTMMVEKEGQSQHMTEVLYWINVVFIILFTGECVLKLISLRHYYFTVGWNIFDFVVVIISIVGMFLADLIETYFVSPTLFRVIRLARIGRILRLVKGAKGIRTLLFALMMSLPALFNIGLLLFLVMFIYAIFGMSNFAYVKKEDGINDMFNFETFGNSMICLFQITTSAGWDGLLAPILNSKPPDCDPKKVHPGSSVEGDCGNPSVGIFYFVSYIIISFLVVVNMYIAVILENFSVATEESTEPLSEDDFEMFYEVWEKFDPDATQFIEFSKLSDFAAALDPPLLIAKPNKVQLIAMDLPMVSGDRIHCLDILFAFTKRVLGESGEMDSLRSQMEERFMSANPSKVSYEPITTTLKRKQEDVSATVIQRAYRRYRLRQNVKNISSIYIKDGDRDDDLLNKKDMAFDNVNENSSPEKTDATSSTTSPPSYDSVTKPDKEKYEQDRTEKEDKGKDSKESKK

[2] = biological target: Sodium channel protein type 5 subunit alpha (Homo sapiens, UniProt Q14524); experiment: Inhibition of human NaV1.5 at -140 mV holding potential by whole-cell patch clamp assay
Chain of Sodium channel protein type 5 subunit alpha (Q14524 whole entry): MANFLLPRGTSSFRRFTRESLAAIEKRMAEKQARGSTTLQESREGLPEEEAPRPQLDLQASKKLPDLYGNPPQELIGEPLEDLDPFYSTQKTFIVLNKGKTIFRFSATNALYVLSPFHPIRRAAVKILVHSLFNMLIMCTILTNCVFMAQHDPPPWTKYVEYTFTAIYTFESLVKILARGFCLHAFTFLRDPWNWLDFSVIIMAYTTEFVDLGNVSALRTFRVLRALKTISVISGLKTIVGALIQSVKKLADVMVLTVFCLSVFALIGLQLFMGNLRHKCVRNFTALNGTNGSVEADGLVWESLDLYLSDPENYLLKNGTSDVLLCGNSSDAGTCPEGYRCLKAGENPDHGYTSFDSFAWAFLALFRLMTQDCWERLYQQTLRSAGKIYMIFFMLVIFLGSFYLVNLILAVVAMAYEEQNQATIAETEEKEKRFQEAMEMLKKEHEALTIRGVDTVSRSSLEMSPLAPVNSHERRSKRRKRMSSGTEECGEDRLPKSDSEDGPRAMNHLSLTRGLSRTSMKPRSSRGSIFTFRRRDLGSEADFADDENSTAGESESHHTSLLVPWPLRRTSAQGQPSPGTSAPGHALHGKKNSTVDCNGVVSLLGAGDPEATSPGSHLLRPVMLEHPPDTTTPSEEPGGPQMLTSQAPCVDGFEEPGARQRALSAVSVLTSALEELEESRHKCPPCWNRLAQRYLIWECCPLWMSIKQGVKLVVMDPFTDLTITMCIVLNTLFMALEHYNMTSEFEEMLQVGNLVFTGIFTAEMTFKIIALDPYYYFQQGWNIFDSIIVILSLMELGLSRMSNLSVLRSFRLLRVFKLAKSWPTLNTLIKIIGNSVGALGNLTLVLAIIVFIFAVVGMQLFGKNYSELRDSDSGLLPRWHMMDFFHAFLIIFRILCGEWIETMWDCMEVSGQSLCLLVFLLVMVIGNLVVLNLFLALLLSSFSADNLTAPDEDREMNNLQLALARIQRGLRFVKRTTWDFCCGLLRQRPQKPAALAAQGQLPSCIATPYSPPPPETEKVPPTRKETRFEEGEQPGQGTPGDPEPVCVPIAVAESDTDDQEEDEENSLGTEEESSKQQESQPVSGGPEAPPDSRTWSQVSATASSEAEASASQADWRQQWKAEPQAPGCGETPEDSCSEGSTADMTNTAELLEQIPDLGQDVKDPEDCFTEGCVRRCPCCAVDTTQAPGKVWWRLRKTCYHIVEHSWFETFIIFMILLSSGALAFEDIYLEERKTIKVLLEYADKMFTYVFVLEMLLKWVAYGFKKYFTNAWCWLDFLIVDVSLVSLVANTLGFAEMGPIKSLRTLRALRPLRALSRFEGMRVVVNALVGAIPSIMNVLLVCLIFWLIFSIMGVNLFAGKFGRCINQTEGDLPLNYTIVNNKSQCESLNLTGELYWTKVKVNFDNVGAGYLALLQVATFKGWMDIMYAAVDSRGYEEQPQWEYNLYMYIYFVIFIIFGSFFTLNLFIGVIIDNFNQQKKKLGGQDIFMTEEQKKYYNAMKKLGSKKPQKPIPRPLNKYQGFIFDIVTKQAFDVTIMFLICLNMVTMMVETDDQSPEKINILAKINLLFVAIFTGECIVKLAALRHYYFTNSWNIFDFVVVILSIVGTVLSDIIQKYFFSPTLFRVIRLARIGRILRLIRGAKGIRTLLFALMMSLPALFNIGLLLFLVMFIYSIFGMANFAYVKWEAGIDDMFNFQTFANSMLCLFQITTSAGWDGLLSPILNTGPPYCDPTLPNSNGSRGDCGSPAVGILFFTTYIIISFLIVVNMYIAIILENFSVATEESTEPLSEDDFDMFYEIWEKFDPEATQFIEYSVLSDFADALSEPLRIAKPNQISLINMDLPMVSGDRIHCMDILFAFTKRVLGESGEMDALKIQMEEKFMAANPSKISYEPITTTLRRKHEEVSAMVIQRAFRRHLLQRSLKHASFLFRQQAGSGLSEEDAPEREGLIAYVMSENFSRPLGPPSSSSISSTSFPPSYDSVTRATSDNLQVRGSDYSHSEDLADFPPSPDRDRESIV

Row | Compound | IC50 [1] | IC50 [2]
1 | CC[C@H](C)[C@@H]1NC(=O)[C@@H]2CSSC[C@@H]3NC(=O)[C@H](C(C)C)NC(=O)[C@H](CC(C)C)NC(=O)[C@H](CC(N)=O)NC(=O)[C@@H]4CCCN4C(=O)[C@H](CCCNC(=N)N)NC(=O)[C@H](CSSC[C@H](NC(=O)[C@@H](N)CC(=O)O)C(=O)N[C@@H](CC(C)C)C(=O)NCC(=O)N[C@@H](C)C(=O)N[C@@H](CCSC)C(=O)N[C@@H](CCCNC(=N)N)C(=O)N[C@@H](CCCCN)C(=O)N2)NC(=O)[C@H](CSSC[C@@H](C(=O)N[C@@H](CCCCN)C(=O)N[C@@H](Cc2ccc(O)cc2)C(=O)N[C@H](C(=O)N[C@@H](Cc2ccccc2)C(N)=O)C(C)C)NC(=O)[C@H](Cc2c[nH]c4ccccc24)NC(=O)[C@H](CCCCN)NC(=O)[C@H](Cc2cnc[nH]2)NC(=O)[C@H](CC(C)C)NC(=O)[C@H](CCCNC(=N)N)NC(=O)[C@H](CO)NC3=O)NC(=O)[C@H](CCCCN)NC(=O)[C@H](CC(=O)O)NC(=O)[C@H](CC(N)=O)NC(=O)[C@H](CC(=O)O)NC(=O)[C@@H]2CCCN2C1=O (H-DCLGAMRKCIPDNDKCCRPNLVCSRLHKWCKYVF-NH2; disulfide 2-17, 9-23, 16-30) | 54 nM | > 10000 nM
2 | CC[C@H](C)[C@@H]1NC(=O)[C@@H]2CSSC[C@@H]3NC(=O)[C@H](C(C)C)NC(=O)[C@H](CC(C)C)NC(=O)[C@H](CC(N)=O)NC(=O)[C@@H]4CCCN4C(=O)[C@H](CCCNC(=N)N)NC(=O)[C@H](CSSC[C@H](NC(=O)[C@@H](N)CC(=O)O)C(=O)N[C@@H](CC(C)C)C(=O)NCC(=O)N[C@@H](Cc4ccccc4)C(=O)N[C@@H](CCSC)C(=O)N[C@@H](CCCNC(=N)N)C(=O)N[C@@H](CCCCN)C(=O)N2)NC(=O)[C@H](CSSC[C@@H](C(=O)N[C@@H](CCCCN)C(=O)N[C@@H](Cc2ccc(O)cc2)C(=O)N[C@H](C(=O)N[C@@H](C)C(N)=O)C(C)C)NC(=O)[C@H](Cc2c[nH]c4ccccc24)NC(=O)[C@H](CCCCN)NC(=O)[C@H](Cc2cnc[nH]2)NC(=O)[C@H]([C@@H](C)O)NC(=O)[C@H](CCCNC(=N)N)NC(=O)[C@H](CO)NC3=O)NC(=O)[C@H](CCCCN)NC(=O)[C@H](CC(=O)O)NC(=O)[C@H](CC(N)=O)NC(=O)[C@H](CC(=O)O)NC(=O)[C@@H]2CCCN2C1=O (H-DCLGFMRKCIPDNDKCCRPNLVCSRTHKWCKYVA-NH2; disulfide 2-17, 9-23, 16-30) | 1200 nM | > 5000 nM
3 | CC[C@H](C)[C@@H]1NC(=O)[C@@H]2CSSC[C@@H]3NC(=O)[C@H](C(C)C)NC(=O)[C@H](CC(C)C)NC(=O)[C@H](CC(N)=O)NC(=O)[C@@H]4CCCN4C(=O)[C@H](CCCNC(=N)N)NC(=O)[C@H](CSSC[C@H](NC(=O)[C@@H](N)CC(=O)O)C(=O)N[C@@H](C)C(=O)NCC(=O)N[C@@H](Cc4ccccc4)C(=O)N[C@@H](CCSC)C(=O)N[C@@H](CCCNC(=N)N)C(=O)N[C@@H](CCCCN)C(=O)N2)NC(=O)[C@H](CSSC[C@@H](C(=O)N[C@@H](CCCCN)C(=O)N[C@@H](Cc2ccc(O)cc2)C(=O)N[C@H](C(=O)N[C@@H](Cc2ccccc2)C(N)=O)C(C)C)NC(=O)[C@H](Cc2c[nH]c4ccccc24)NC(=O)[C@H](CCCCN)NC(=O)[C@H](Cc2cnc[nH]2)NC(=O)[C@H]([C@@H](C)O)NC(=O)[C@H](CCCNC(=N)N)NC(=O)[C@H](CO)NC3=O)NC(=O)[C@H](CCCCN)NC(=O)[C@H](CC(=O)O)NC(=O)[C@H](CC(N)=O)NC(=O)[C@H](CC(=O)O)NC(=O)[C@@H]2CCCN2C1=O (H-DCAGFMRKCIPDNDKCCRPNLVCSRTHKWCKYVF-NH2; disulfide 2-17, 9-23, 16-30) | 430 nM | > 5000 nM
4 | CC[C@H](C)[C@@H]1NC(=O)[C@@H]2CSSC[C@@H]3NC(=O)[C@H](C(C)C)NC(=O)[C@H](CC(C)C)NC(=O)[C@H](CC(N)=O)NC(=O)[C@@H]4CCCN4C(=O)[C@H](CCCNC(=N)N)NC(=O)[C@H](CSSC[C@H](NC(=O)[C@@H](N)CC(=O)O)C(=O)N[C@@H](CC(C)C)C(=O)NCC(=O)N[C@@H](CC4CCCCC4)C(=O)N[C@@H](CCSC)C(=O)N[C@@H](CCCNC(=N)N)C(=O)N[C@@H](CCCCN)C(=O)N2)NC(=O)[C@H](CSSC[C@@H](C(=O)N[C@@H](CCCCN)C(=O)N[C@@H](Cc2ccc(O)cc2)C(=O)N[C@H](C(=O)N[C@@H](Cc2ccccc2)C(N)=O)C(C)C)NC(=O)[C@H](Cc2c[nH]c4ccccc24)NC(=O)[C@H](CCCCN)NC(=O)[C@H](Cc2cnc[nH]2)NC(=O)[C@H]([C@@H](C)O)NC(=O)[C@H](CCCNC(=N)N)NC(=O)[C@H](CO)NC3=O)NC(=O)[C@H](CCCCN)NC(=O)[C@H](CC(=O)O)NC(=O)[C@H](CC(N)=O)NC(=O)[C@H](CC(=O)O)NC(=O)[C@@H]2CCCN2C1=O | 4 nM | 3500 nM
5 | CC[C@H](C)[C@@H]1NC(=O)[C@@H]2CSSC[C@@H]3NC(=O)[C@H](C(C)C)NC(=O)[C@H](CC(C)C)NC(=O)[C@H](CC(N)=O)NC(=O)[C@@H]4CCCN4C(=O)[C@H](CCCNC(=N)N)NC(=O)[C@H](CSSC[C@H](NC(=O)[C@@H](N)CC(=O)O)C(=O)N[C@@H](CC(C)C)C(=O)NCC(=O)N[C@@H](Cc4ccccc4)C(=O)N[C@@H](CC(C)C)C(=O)N[C@@H](CCCNC(=N)N)C(=O)N[C@@H](CCCCN)C(=O)N2)NC(=O)[C@H](CSSC[C@@H](C(=O)N[C@@H](CCCCN)C(=O)N[C@@H](Cc2ccc(O)cc2)C(=O)N[C@H](C(=O)N[C@@H](Cc2ccccc2)C(N)=O)C(C)C)NC(=O)[C@H](Cc2c[nH]c4ccccc24)NC(=O)[C@H](CCCCN)NC(=O)[C@H](Cc2cnc[nH]2)NC(=O)[C@H]([C@@H](C)O)NC(=O)[C@H](CCCNC(=N)N)NC(=O)[C@H](CO)NC3=O)NC(=O)[C@H](CCCCN)NC(=O)[C@H](CC(=O)O)NC(=O)[C@H](CC(N)=O)NC(=O)[C@H](CC(=O)O)NC(=O)[C@@H]2CCCN2C1=O (H-DCLGFLRKCIPDNDKCCRPNLVCSRTHKWCKYVF-NH2; disulfide 2-17, 9-23, 16-30) | 24 nM | > 10000 nM
6 | CC[C@H](C)[C@@H]1NC(=O)[C@@H]2CSSC[C@@H]3NC(=O)[C@H](C(C)C)NC(=O)[C@H](CC(C)C)NC(=O)[C@H](CC(N)=O)NC(=O)[C@@H]4CCCN4C(=O)[C@H](CCCNC(=N)N)NC(=O)[C@H](CSSC[C@H](NC(=O)[C@@H](N)CC(=O)O)C(=O)N[C@@H](CC(C)C)C(=O)NCC(=O)N[C@@H](CC(C)C)C(=O)N[C@@H](CCSC)C(=O)N[C@@H](CCCNC(=N)N)C(=O)N[C@@H](CCCCN)C(=O)N2)NC(=O)[C@H](CSSC[C@@H](C(=O)N[C@@H](CCCCN)C(=O)N[C@@H](Cc2ccc(O)cc2)C(=O)N[C@H](C(=O)N[C@@H](Cc2ccccc2)C(N)=O)C(C)C)NC(=O)[C@H](Cc2c[nH]c4ccccc24)NC(=O)[C@H](CCCCN)NC(=O)[C@H](Cc2cnc[nH]2)NC(=O)[C@H]([C@@H](C)O)NC(=O)[C@H](CCCNC(=N)N)NC(=O)[C@H](CO)NC3=O)NC(=O)[C@H](CCCCN)NC(=O)[C@H](CC(=O)O)NC(=O)[C@H](CC(N)=O)NC(=O)[C@H](CC(=O)O)NC(=O)[C@@H]2CCCN2C1=O (H-DCLGLMRKCIPDNDKCCRPNLVCSRTHKWCKYVF-NH2; disulfide 2-17, 9-23, 16-30) | 5 nM | > 10000 nM
7 | CC[C@@H]1NC(=O)CNC(=O)[C@H](CC(C)C)NC(=O)[C@@H](NC(=O)[C@@H](N)CC(=O)O)CSSC[C@@H]2NC(=O)[C@@H]3CSSC[C@@H](C(=O)N[C@@H](CCCCN)C(=O)N[C@@H](Cc4ccc(O)cc4)C(=O)N[C@H](C(=O)N[C@@H](Cc4ccccc4)C(N)=O)C(C)C)NC(=O)[C@H](Cc4c[nH]c5ccccc45)NC(=O)[C@H](CCCCN)NC(=O)[C@H](Cc4cnc[nH]4)NC(=O)[C@H]([C@@H](C)O)NC(=O)[C@H](CCCNC(=N)N)NC(=O)[C@H](CO)NC(=O)[C@H](CSSC[C@H](NC(=O)[C@H](CCCCN)NC(=O)[C@H](CCCNC(=N)N)NC(=O)[C@H](CCSC)NC1=O)C(=O)N[C@@H]([C@@H](C)CC)C(=O)N1CCC[C@H]1C(=O)N[C@@H](CC(=O)O)C(=O)N[C@@H](CC(N)=O)C(=O)N[C@@H](CC(=O)O)C(=O)N[C@@H](CCCCN)C(=O)N3)NC(=O)[C@H](C(C)C)NC(=O)[C@H](CC(C)C)NC(=O)[C@H](CC(N)=O)NC(=O)[C@@H]1CCCN1C(=O)[C@H](CCCNC(=N)N)NC2=O | 79 nM | > 10000 nM
8 | CC[C@H](C)[C@@H]1NC(=O)[C@@H]2CSSC[C@@H]3NC(=O)[C@H](C(C)C)NC(=O)[C@H](CC(C)C)NC(=O)[C@H](CC(N)=O)NC(=O)[C@@H]4CCCN4C(=O)[C@H](CCCNC(=N)N)NC(=O)[C@H](CSSC[C@H](NC(=O)[C@@H](N)CC(=O)O)C(=O)N[C@@H](CC(C)C)C(=O)NCC(=O)N[C@@H](Cc4ccccc4)C(=O)N[C@@H](CCSC)C(=O)N[C@@H](CCCNC(=N)N)C(=O)N[C@@H](CCCCN)C(=O)N2)NC(=O)[C@H](CSSC[C@@H](C(=O)N[C@@H](CCCCN)C(=O)N[C@@H](Cc2ccc(O)cc2)C(=O)N[C@H](C(=O)N[C@@H](Cc2ccccc2)C(N)=O)C(C)C)NC(=O)[C@H](Cc2c[nH]c4ccccc24)NC(=O)[C@H](CCCCN)NC(=O)[C@H](Cc2cnc[nH]2)NC(=O)[C@H]([C@@H](C)O)NC(=O)[C@H](CCCNC(=N)N)NC(=O)[C@H](CO)NC3=O)NC(=O)[C@H](CCCCN)NC(=O)[C@H](CC(=O)O)NC(=O)[C@H](CC(N)=O)NC(=O)[C@H](CC(=O)O)NC(=O)[C@H](C)NC1=O (H-DCLGFMRKCIADNDKCCRPNLVCSRTHKWCKYVF-NH2; disulfide 2-17, 9-23, 16-30) | 170 nM | > 5000 nM
